Data on 37 molecules can be found in patent publication US12540118B2, “Dendrene amide compound, bactericide and use thereof” (Jiangsu Flag Chemical Industry Co., Ltd., priority 2020, dated 2026).

Assay [1] has as its target T1, succinate dehydrogenase (Sus scrofa, UniProt A5GZW8+D0VWV4+Q007T0).
T1 construct: isolated from porcine hearts; from tissue; host or cells: porcine heart
The assay is described as follows: Enzyme activity assay, succinate dehydrogenase (DCIP reduction). It is filed as biochemical, porcine. As to conditions: read-out: Inhibitors (10 μM, SQR). The essentials: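 Porcine heart succinate dehydrogenase (2 nM) in 100 mM sodium phosphate pH 7.4, 0.3 mM EDTA, 20 mM sodium succinate and 53 μM DCIP at 23° C with stirring. DCIP reduction followed at 600 nm (ε 21 mM^−1 cm^−1); linear slope minus baseline gives initial rate.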

The test system of assay [2] is Erysiphe graminis. The assay can be described thus: Erysiphe graminis potting method. The format is in vivo. As to conditions: Blumeria graminis; 100 mg/L; read-out: Erysiphe graminis control rating. As for the experimental part:
The fungicidal activity of the control agents and target compounds are determined. The test and investigation method refers to SOP-SC-1116 Erysiphe graminis potting method in disinfectant rolls written by KANGZHUO and GUBAOGEN in “Standard operation specification for testing biological activity of pesticides”.

Assay [3] deals with Sphaerotheca fuliginea. The assay is described as follows: Sphaerotheca fuliginea potting method. As to conditions: Podosphaera fuliginea; 100 mg/L; read-out: Sphaerotheca fuliginea control rating. The format is in vivo. As for the experimental part: The fungicidal activity of the control agents and target compounds are determined. The test and investigation method refers to SOP-SC-1101 sphaerotheca fuliginea potting method in disinfectant rolls written by KANGZHUO and GUBAOGEN in “Standard operation specification for testing biological activity of pesticides”.

T1 sequence (Q0QF01 43-664 partner): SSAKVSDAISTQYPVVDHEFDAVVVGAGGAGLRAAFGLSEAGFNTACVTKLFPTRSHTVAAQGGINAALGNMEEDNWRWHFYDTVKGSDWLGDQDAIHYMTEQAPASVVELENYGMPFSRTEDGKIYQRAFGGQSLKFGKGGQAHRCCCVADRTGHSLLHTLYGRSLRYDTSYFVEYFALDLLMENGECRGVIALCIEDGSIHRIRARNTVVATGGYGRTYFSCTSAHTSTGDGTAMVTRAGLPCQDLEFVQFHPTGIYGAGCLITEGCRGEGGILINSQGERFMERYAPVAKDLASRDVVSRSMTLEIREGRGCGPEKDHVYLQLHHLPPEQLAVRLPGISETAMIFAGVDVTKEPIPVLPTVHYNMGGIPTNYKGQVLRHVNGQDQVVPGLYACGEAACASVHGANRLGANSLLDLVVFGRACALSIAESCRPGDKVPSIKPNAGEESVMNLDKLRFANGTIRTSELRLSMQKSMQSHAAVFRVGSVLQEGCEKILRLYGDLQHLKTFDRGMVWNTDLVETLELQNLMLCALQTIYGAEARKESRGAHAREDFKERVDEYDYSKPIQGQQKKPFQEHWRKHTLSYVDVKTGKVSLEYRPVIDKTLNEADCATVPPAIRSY
T1 sequence (Q007T0 29-280): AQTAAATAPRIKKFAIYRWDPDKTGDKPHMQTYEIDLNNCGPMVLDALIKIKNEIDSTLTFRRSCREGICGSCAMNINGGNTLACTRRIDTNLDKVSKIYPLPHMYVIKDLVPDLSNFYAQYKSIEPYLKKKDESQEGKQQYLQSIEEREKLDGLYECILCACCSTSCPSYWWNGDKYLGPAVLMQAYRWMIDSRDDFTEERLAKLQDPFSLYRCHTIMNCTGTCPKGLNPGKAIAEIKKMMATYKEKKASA
T1 sequence (D0VWV4 30-169): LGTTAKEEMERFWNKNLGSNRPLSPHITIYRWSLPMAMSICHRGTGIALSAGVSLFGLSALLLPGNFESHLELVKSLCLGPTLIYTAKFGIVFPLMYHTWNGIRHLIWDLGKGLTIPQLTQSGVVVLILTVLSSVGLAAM
T1 sequence (A5GZW8 57-159 limits assumed): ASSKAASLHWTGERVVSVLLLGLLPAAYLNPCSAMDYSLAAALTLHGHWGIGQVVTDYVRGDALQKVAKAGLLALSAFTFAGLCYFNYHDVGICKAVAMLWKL

Turning to `Cn1nc(C(F)F)c(C(=O)N(CC(=C(Cl)Cl)c2ccc(Cl)cc2Cl)C2CC2)c1F` [Compound 118], the inhibition at 10 µM in assay [1] was > 90%. Besides, the pest or weed control at 100 µg/mL in assay [2] and in assay [3] was 80 to 100% each time.
As for `Cn1nc(C(F)F)c(C(=O)N(CC(=C(Cl)Cl)c2cc(Cl)ccc2Cl)C2CC2)c1F` [Compound 119], the inhibition at 10 µM in assay [1] was > 90%. In addition, the pest or weed control at 100 µg/mL in assay [2] and in assay [3] was 80 to 100% in each case.
In the case of `Cn1nc(C(F)F)c(C(=O)N(CC(=C(Cl)Cl)c2c(Cl)cccc2Cl)C2CC2)c1F` [Compound 120], in assay [1], the inhibition at 10 µM was > 90%. The pest or weed control at 100 µg/mL in assay [2] and in assay [3] was 80 to 100% in each case.
`Cn1nc(C(F)F)c(C(=O)N(CC(=C(Cl)Cl)c2ccc(Cl)c(Cl)c2)C2CC2)c1F` [Compound 121]: the inhibition at 10 µM in assay [1] is > 90%. The pest or weed control at 100 µg/mL in assay [2] and in assay [3] was 80 to 100% each time.
Consider `Cn1nc(C(F)F)c(C(=O)N(CC(=C(Cl)Cl)c2cc(Cl)cc(Cl)c2)C2CC2)c1F` [Compound 122], for which, in assay [1], the inhibition at 10 µM is > 90%. Further, the pest or weed control at 100 µg/mL in assay [2] and in assay [3] was 80 to 100% throughout.
Consider `Cn1nc(C(F)F)c(C(=O)N(CC(=C(Cl)Cl)c2c(Cl)cc(Cl)cc2Cl)C2CC2)c1F` [Compound 123], for which, in assay [1], the inhibition at 10 µM was > 90%. In addition, the pest or weed control at 100 µg/mL in assay [2] and in assay [3] was 80 to 100% in each case.
Turning to `Cn1nc(C(F)F)c(C(=O)N(CC(=C(Cl)Cl)c2cccc(F)c2)C2CC2)c1F` [Compound 124], in assay [1], the inhibition at 10 µM was > 90%. Further, the pest or weed control at 100 µg/mL in assay [2] and in assay [3] was 80 to 100% in each case.
Consider `Cn1nc(C(F)F)c(C(=O)N(CC(=C(Cl)Cl)c2ccc(F)cc2F)C2CC2)c1F` [Compound 126], for which, in assay [1], the inhibition at 10 µM is > 90%. For the same molecule, the pest or weed control at 100 µg/mL in assay [2] and in assay [3] was 80 to 100% each time.
For `Cn1nc(C(F)F)c(C(=O)N(CC(=C(Cl)Cl)c2cc(F)ccc2F)C2CC2)c1F` [Compound 127], the inhibition at 10 µM in assay [1] is > 90%. Moreover, the pest or weed control at 100 µg/mL in assay [2] and in assay [3] was 80 to 100% in each case.
`Cn1nc(C(F)F)c(C(=O)N(CC(=C(Cl)Cl)c2c(F)cccc2F)C2CC2)c1F` [Compound 128]: the inhibition at 10 µM in assay [1] is > 90%. The pest or weed control at 100 µg/mL in assay [2] and in assay [3] was 80 to 100% each time.
Turning to `Cn1nc(C(F)F)c(C(=O)N(CC(=C(Cl)Cl)c2c(F)cc(F)cc2F)C2CC2)c1F` [Compound 129], the inhibition at 10 µM in assay [1] was > 90%. In addition, the pest or weed control at 100 µg/mL in assay [2] and in assay [3] was 80 to 100% in each case.
As for `Cn1nc(C(F)F)c(C(=O)N(CC(=C(Cl)Cl)c2ccc(F)c(F)c2)C2CC2)c1F` [Compound 130], in assay [1], the inhibition at 10 µM was > 90%. Besides, the pest or weed control at 100 µg/mL in assay [2] and in assay [3] was 80 to 100% throughout.
As for `Cn1nc(C(F)F)c(C(=O)N(CC(=C(Cl)Cl)c2ccc(Br)cc2)C2CC2)c1F` [Compound 131], the inhibition at 10 µM in assay [1] is > 90%. Moreover, the pest or weed control at 100 µg/mL in assay [2] and in assay [3] was 80 to 100% each time.
`Cn1nc(C(F)F)c(C(=O)N(CC(=C(Cl)Cl)c2ccccc2Br)C2CC2)c1F` [Compound 132]: in assay [1], the inhibition at 10 µM was > 90%. In addition, the pest or weed control at 100 µg/mL in assay [2] and in assay [3] was 80 to 100% each time.
As to `Cn1nc(C(F)F)c(C(=O)N(CC(=C(Cl)Cl)c2cccc(Br)c2)C2CC2)c1F` [Compound 133], the inhibition at 10 µM in assay [1] was > 90%. In addition, the pest or weed control at 100 µg/mL in assay [2] and in assay [3] was 80 to 100% throughout.
For `Cn1nc(C(F)F)c(C(=O)N(CC(=C(Cl)Cl)c2ccc(Br)cc2Br)C2CC2)c1F` [Compound 134], in assay [1], the inhibition at 10 µM was > 90%. The pest or weed control at 100 µg/mL in assay [2] and in assay [3] was 80 to 100% throughout.
`Cn1nc(C(F)F)c(C(=O)N(CC(=C(Cl)Cl)c2cc(Br)ccc2Br)C2CC2)c1F` [Compound 135]: in assay [1], the inhibition at 10 µM was > 90%. Also, the pest or weed control at 100 µg/mL in assay [2] and in assay [3] was 80 to 100% in each case.
Take `Cn1nc(C(F)F)c(C(=O)N(CC(=C(Cl)Cl)c2c(Br)cccc2Br)C2CC2)c1F` [Compound 136]: the inhibition at 10 µM in assay [1] was > 90%. Also, the pest or weed control at 100 µg/mL in assay [2] and in assay [3] was 80 to 100% each time.
As to `Cn1nc(C(F)F)c(C(=O)N(CC(=C(Cl)Cl)c2c(Br)cc(Br)cc2Br)C2CC2)c1F` [Compound 137], the inhibition at 10 µM in assay [1] is > 90%. For the same molecule, the pest or weed control at 100 µg/mL in assay [2] and in assay [3] was 80 to 100% each time.
On to `Cn1nc(C(F)F)c(C(=O)N(CC(=C(Cl)Cl)c2ccc(Br)c(Br)c2)C2CC2)c1F` [Compound 138], for which the inhibition at 10 µM in assay [1] was > 90%. The pest or weed control at 100 µg/mL in assay [2] and in assay [3] was 80 to 100% in each case.
As to `Cc1cccc(C(CN(C(=O)c2c(C(F)F)nn(C)c2F)C2CC2)=C(Cl)Cl)c1` [Compound 139], the inhibition at 10 µM in assay [1] was > 90%. For the same molecule, the pest or weed control at 100 µg/mL in assay [2] and in assay [3] was 80 to 100% in each case.
With `Cc1ccc(C(CN(C(=O)c2c(C(F)F)nn(C)c2F)C2CC2)=C(Cl)Cl)c(C)c1` [Compound 140], in assay [1], the inhibition at 10 µM is > 90%. In addition, the pest or weed control at 100 µg/mL in assay [2] and in assay [3] was 80 to 100% throughout.
Regarding `Cc1ccc(C)c(C(CN(C(=O)c2c(C(F)F)nn(C)c2F)C2CC2)=C(Cl)Cl)c1` [Compound 141], in assay [1], the inhibition at 10 µM is > 90%. The pest or weed control at 100 µg/mL in assay [2] and in assay [3] was 80 to 100% in each case.
Turning to `Cc1cccc(C)c1C(CN(C(=O)c1c(C(F)F)nn(C)c1F)C1CC1)=C(Cl)Cl` [Compound 142], in assay [1], the inhibition at 10 µM was > 90%. In addition, the pest or weed control at 100 µg/mL in assay [2] and in assay [3] was 80 to 100% throughout.
As to `Cc1cc(C)c(C(CN(C(=O)c2c(C(F)F)nn(C)c2F)C2CC2)=C(Cl)Cl)c(C)c1` [Compound 143], in assay [1], the inhibition at 10 µM is > 90%. Further, the pest or weed control at 100 µg/mL in assay [2] and in assay [3] was 80 to 100% throughout.
On to `Cc1ccc(C(C)C)cc1C(CN(C(=O)c1c(C(F)F)nn(C)c1F)C1CC1)=C(Cl)Cl` [Compound 144], for which the inhibition at 10 µM in assay [1] was > 90%. The pest or weed control at 100 µg/mL in assay [2] and in assay [3] was 80 to 100% throughout.
For the molecule `Cc1ccc(C(C)C)c(C(CN(C(=O)c2c(C(F)F)nn(C)c2F)C2CC2)=C(Cl)Cl)c1` [Compound 145], the inhibition at 10 µM in assay [1] is > 90%. The pest or weed control at 100 µg/mL in assay [2] and in assay [3] was 80 to 100% each time.
Regarding `Cc1ccc(C(C)(C)C)c(C(CN(C(=O)c2c(C(F)F)nn(C)c2F)C2CC2)=C(Cl)Cl)c1` [Compound 146], in assay [1], the inhibition at 10 µM is > 90%. For the same molecule, the pest or weed control at 100 µg/mL in assay [2] and in assay [3] was 80 to 100% each time.
For the molecule `Cc1ccc(C(C)(C)C)cc1C(CN(C(=O)c1c(C(F)F)nn(C)c1F)C1CC1)=C(Cl)Cl` [Compound 147], the inhibition at 10 µM in assay [1] was > 90%. Moreover, the pest or weed control at 100 µg/mL in assay [2] and in assay [3] was 80 to 100% in each case.
With `Cc1cc(C(C)C)ccc1C(CN(C(=O)c1c(C(F)F)nn(C)c1F)C1CC1)=C(Cl)Cl` [Compound 148], the inhibition at 10 µM in assay [1] was > 90%. Further, the pest or weed control at 100 µg/mL in assay [2] and in assay [3] was 80 to 100% throughout.
`Cc1ccccc1C(CN(C(=O)c1c(C(F)F)nn(C)c1F)C1CC1)=C(Cl)Cl` [Compound 149]: the inhibition at 10 µM in assay [1] was > 90%. Further, the pest or weed control at 100 µg/mL in assay [2] and in assay [3] was 80 to 100% each time.
For the molecule `Cc1ccc(C(CN(C(=O)c2c(C(F)F)nn(C)c2F)C2CC2)=C(Cl)Cl)cc1` [Compound 150], in assay [1], the inhibition at 10 µM is > 90%. Besides, the pest or weed control at 100 µg/mL in assay [2] and in assay [3] was 80 to 100% throughout.
For `Cc1ccc(C(CN(C(=O)c2c(C(F)F)nn(C)c2F)C2CC2)=C(Cl)Cl)cc1C` [Compound 151], in assay [1], the inhibition at 10 µM is > 90%. In addition, the pest or weed control at 100 µg/mL in assay [2] and in assay [3] was 80 to 100% throughout.
On to `Cc1cc(C)cc(C(CN(C(=O)c2c(C(F)F)nn(C)c2F)C2CC2)=C(Cl)Cl)c1` [Compound 152], for which the inhibition at 10 µM in assay [1] is > 90%. In addition, the pest or weed control at 100 µg/mL in assay [2] and in assay [3] was 80 to 100% each time.
Take `Cn1nc(C(F)F)c(C(=O)N(CC(=C(Cl)Cl)c2ccc(Cl)cc2F)C2CC2)c1F` [Compound 153]: the inhibition at 10 µM in assay [1] is > 90%. For the same molecule, the pest or weed control at 100 µg/mL in assay [2] and in assay [3] was 80 to 100% each time.
Take `Cn1nc(C(F)F)c(C(=O)N(CC(=C(Cl)Cl)c2ccc(F)cc2Cl)C2CC2)c1F` [Compound 154]: the inhibition at 10 µM in assay [1] was > 90%. Moreover, the pest or weed control at 100 µg/mL in assay [2] and in assay [3] was 80 to 100% throughout.
For `Cn1nc(C(F)F)c(C(=O)N(CC(=C(Cl)Cl)c2cc(Cl)ccc2F)C2CC2)c1F` [Compound 155], the inhibition at 10 µM in assay [1] was > 90%. Also, the pest or weed control at 100 µg/mL in assay [2] and in assay [3] was 80 to 100% in each case.
